Results on 1 substance are retold here after ChEMBL document CHEMBL1150501 (Bioorg Med Chem Lett, 1995).

The assay deals with Glucagon receptor (Rattus norvegicus, UniProt P30082). Briefly: pA2 value towards glucagon receptor relative to glucagon was calculated.
Chain of Glucagon receptor (P30082 whole entry): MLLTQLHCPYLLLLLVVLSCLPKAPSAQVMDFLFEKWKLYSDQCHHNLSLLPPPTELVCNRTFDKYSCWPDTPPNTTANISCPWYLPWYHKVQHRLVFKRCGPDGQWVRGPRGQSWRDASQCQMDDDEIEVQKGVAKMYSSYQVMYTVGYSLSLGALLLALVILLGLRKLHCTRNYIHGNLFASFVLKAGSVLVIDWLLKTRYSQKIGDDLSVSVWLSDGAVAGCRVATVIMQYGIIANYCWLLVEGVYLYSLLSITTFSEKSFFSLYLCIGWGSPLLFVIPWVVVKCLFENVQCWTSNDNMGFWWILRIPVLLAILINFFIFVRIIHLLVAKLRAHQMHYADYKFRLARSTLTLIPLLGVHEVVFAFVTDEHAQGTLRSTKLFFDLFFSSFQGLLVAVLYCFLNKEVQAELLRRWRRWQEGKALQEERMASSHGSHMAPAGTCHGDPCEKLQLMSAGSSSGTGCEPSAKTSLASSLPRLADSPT

Consider H-SQGTTSEYSKYLDSRRAQDFVQWLMNT-NH2, for which the Kb was 6.31 nM.
